Measurements taken from patent publication US20230172867A1, “A METHOD FOR TREATING CANCER WITH AN ORAL DOSAGE FORM OF AN FGFR4 INHIBITOR” (Eisai R&D Management Co., Ltd., priority 2020, published 2023).
Values joined by “and” are separate entries in the source; they are usually repeats but may differ in a detail not shown here. Identical values can stand only once.

Tested on: patients with HCC
Experiment: Tumor response / efficacy in patients with HCC (RECIST 1.1/modified RECIST), trial NCT02834780
Format: in vivo, human
Settings: for Clinical Benefit Rate (CBR)(CR+PR+Durable SD): durable SD = stable disease ≥ 17 weeks; for clinical benefit rate / confirmed ORR: 55 HCC patients with ≥ 2 prior lines of therapy; for clinical benefit rate (complete response + partial response + durable stable disease) / confirmed overall response rate (ORR): 90 patients with HCC; for median OS / median PFS: HCC patients with ≥ 2 prior lines of therapy; for median overall survival (OS) / median progression-free survival (PFS): all HCC patients
From the text: A description of the first in human clinical trial for H3B-6527 can be found at the ClinicalTrials.gov by searching for trial identifier NCT02834780. In summary, the trial included a study population having the following characteristics: Adult patients ≥18 years old with advanced HCC or ICC; Progression after at least one prior therapy; ECOG score of 0 or 1; Well compensated liver function; FGF19-positive (dose expansion phase only); Excluded if patients have significant active infections [except hepatitis B virus (HBV) and hepatitis C virus (HCV)], gastric or esophageal varices, or previous FGF19-FGFR4 targeted therapy.
Drug Administration and Dosage for Dose Escalation: H3B-6527 was administered orally QD or BID on a 21-day cycle. Dose escalation followed a standard 3+3 cohort design with the dose cohorts of 300, 600, 1000, and 1400 mg QD fasting or 500 and 700 mg BID fed. Patients in dose escalation phase were treated regardless of FGF19 status. Response determined by RECIST 1.1/modified RECIST every 6 weeks

[1] = Expansion 1000 mg QD Fasted (N=10)

## C=CC(=O)Nc1cc(N2CCN(CC)CC2)ccc1Nc1cc(N(C)C(=O)Nc2c(Cl)c(OC)cc(OC)c2Cl)ncn1 [H3B-6527, N-(2-((6-(3-(2,6-dichloro-3,5-dimethoxyphenyl)-1-methylureido)pyrimidin-4-yl)amino)-5-(4-ethylpiperazin-1-yl)phenyl)acrylamide]
300 mg QD Fasted (N=3)
  Best Overall Response: Complete Response (CR): 0 (0.0) n (%)
  Best Overall Response: Not Evaluable: 0 (0.0) n (%)
  Best Overall Response: Partial Response (PR): 0 (0.0) n (%)
  Best Overall Response: Progressive Disease (PD): 0 (0.0) n (%)
  Best Overall Response: Unknown: 0 (0.0) n (%)
  Objective Response Rate (CR+PR): 0 (0.0) n (%)
  Clinical Benefit Rate (CBR)(CR+PR+Durable SD): 1 (33.3) n (%)
600 mg QD Fasted (N=3)
  Best Overall Response: Complete Response (CR): 0 (0.0) n (%)
  Best Overall Response: Not Evaluable: 0 (0.0) n (%)
  Best Overall Response: Partial Response (PR): 0 (0.0) n (%)
  Best Overall Response: Progressive Disease (PD): 1 (33.3) n (%)
  Best Overall Response: Unknown: 0 (0.0) n (%)
  Objective Response Rate (CR+PR): 0 (0.0) n (%)
  Clinical Benefit Rate (CBR)(CR+PR+Durable SD): 2 (66.7) n (%)
1000 mg QD Fasted (N=7)
  Best Overall Response: Complete Response (CR): 0 (0.0) n (%)
  Best Overall Response: Not Evaluable: 0 (0.0) n (%)
  Best Overall Response: Partial Response (PR): 1 (14.3) n (%)
  Best Overall Response: Progressive Disease (PD): 0 (0.0) n (%)
  Best Overall Response: Unknown: 0 (0.0) n (%)
  Objective Response Rate (CR+PR): 1 (14.3) n (%)
  Clinical Benefit Rate (CBR)(CR+PR+Durable SD): 5 (71.4) n (%)
1400 mg QD Fasted (N=4)
  Best Overall Response: Complete Response (CR): 0 (0.0) n (%)
  Best Overall Response: Not Evaluable: 0 (0.0) n (%)
  Best Overall Response: Partial Response (PR): 1 (25.0) n (%)
  Best Overall Response: Progressive Disease (PD): 0 (0.0) n (%)
  Best Overall Response: Unknown: 0 (0.0) n (%)
  Objective Response Rate (CR+PR): 1 (25.0) n (%)
  Clinical Benefit Rate (CBR)(CR+PR+Durable SD): 3 (75.0) n (%)
BID group
  clinical benefit rate: 25.8%
  confirmed ORR: 0%
  clinical benefit rate (complete response + partial response + durable stable disease): 38%
  confirmed overall response rate (ORR): 0%
  median OS: 7.3 months
  median PFS: 2.8 months
  median overall survival (OS): 8.0 months
  median progression-free survival (PFS): 3.4 months
[1]
  Best Overall Response: Complete Response (CR): 0 (0.0) n (%)
  Best Overall Response: Not Evaluable: 0 (0.0) n (%)
  Best Overall Response: Partial Response (PR): 0 (0.0) n (%)
  Best Overall Response: Progressive Disease (PD): 1 (10.0) n (%)
  Best Overall Response: Unknown: 3 (30.0) n (%)
  Objective Response Rate (CR+PR): 0 (0.0) n (%)
  Clinical Benefit Rate (CBR)(CR+PR+Durable SD): 2 (20.0) n (%)
QD group
  clinical benefit rate: 45.8%
  confirmed ORR: 12.5%
  clinical benefit rate (complete response + partial response + durable stable disease): 52%
  confirmed overall response rate (ORR): 8.3%
  median OS: 10.6 months
  median PFS: 4.1 months
  median overall survival (OS): 11.1 months
  median progression-free survival (PFS): 4.1 months
Total (N=27), QD fasted
  Best Overall Response: Complete Response (CR): 0 (0.0) n (%)
  Best Overall Response: Not Evaluable: 0 (0.0) n (%)
  Best Overall Response: Partial Response (PR): 2 (7.4%) n (%) and 2 (7.4) n (%)
  Best Overall Response: Progressive Disease (PD): 2 (7.4) n (%)
  Best Overall Response: Unknown: 3 (11.1) n (%)
  Objective Response Rate (CR+PR): 2 (7.4) n (%)
  Clinical Benefit Rate (CBR)(CR+PR+Durable SD): 13 (48.1) n (%)
